Measured values from ChEMBL document CHEMBL5104091, “Pyridazine as a privileged structure: An updated review on anticancer activity of pyridazine containing bioactive molecules” (Eur J Med Chem, 2021).
Values after ≈ are worked out from the molar mass of the structure shown. Blank lines part the entries; values can stand above or below the molecule they belong to.

Assays:
MCF7 [1] = experiment: Antiproliferative activity against human MCF7 cells assessed as cell growth inhibition; format: functional, cell-based
A549 = experiment: Antiproliferative activity against human A549 cells assessed as cell growth inhibition; format: functional, cell-based
MDA-MB-231 [2] = experiment: Antiproliferative activity against human MDA-MB-231 cells assessed as cell growth inhibition; format: functional, cell-based
HaCaT = experiment: Antiproliferative activity against human HaCaT cells assessed as cell growth inhibition; format: functional, cell-based
[3] = target: Tyrosine-protein kinase BTK (Homo sapiens, UniProt Q06187); experiment: Inhibition of BTK (unknown origin) incubated for 30 mins in presence of ATP by fluorescence based analysis
Tyrosine-protein kinase BTK, sequence (Q06187 whole entry): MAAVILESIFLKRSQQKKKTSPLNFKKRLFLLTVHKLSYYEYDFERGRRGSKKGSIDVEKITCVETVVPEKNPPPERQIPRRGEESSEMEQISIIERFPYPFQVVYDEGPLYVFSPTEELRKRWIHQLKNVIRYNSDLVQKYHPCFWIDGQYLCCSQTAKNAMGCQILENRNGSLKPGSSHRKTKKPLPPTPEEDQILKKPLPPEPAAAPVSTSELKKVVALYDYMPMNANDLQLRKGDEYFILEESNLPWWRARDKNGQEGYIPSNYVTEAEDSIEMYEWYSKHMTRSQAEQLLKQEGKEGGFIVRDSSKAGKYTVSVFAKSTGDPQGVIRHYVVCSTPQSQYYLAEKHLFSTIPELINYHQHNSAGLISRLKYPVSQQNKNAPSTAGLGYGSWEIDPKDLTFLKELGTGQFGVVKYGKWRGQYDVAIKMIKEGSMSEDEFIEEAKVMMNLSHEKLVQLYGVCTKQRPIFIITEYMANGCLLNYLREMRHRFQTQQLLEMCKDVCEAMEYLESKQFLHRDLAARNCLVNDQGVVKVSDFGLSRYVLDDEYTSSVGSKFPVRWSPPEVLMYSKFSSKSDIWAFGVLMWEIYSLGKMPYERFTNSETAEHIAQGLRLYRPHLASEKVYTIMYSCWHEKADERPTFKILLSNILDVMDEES

TMD8 = experiment: Cytotoxicity against human TMD8 cells assessed as cell growth inhibition measured after 72 hrs by WST-1 assay; format: functional, cell-based; settings: TMD8, 72 h
HUVEC = experiment: Antiproliferative activity against VEGF-stimulated human HUVEC cells assessed as cell growth inhibition at 10 uM incubated for 72 hrs by resazurin dye based AlamarBlue assay relative to control; format: functional
A-375 = experiment: Cytotoxicity against human A-375 cells assessed as cell growth inhibition; format: functional, cell-based
COLO 205 = experiment: Cytotoxicity against human COLO 205 cells assessed as cell growth inhibition; format: functional, cell-based
[4] = target: Epidermal growth factor receptor (Homo sapiens, UniProt P00533); experiment: Inhibition of EGFR (unknown origin)
Epidermal growth factor receptor, sequence (P00533 whole entry): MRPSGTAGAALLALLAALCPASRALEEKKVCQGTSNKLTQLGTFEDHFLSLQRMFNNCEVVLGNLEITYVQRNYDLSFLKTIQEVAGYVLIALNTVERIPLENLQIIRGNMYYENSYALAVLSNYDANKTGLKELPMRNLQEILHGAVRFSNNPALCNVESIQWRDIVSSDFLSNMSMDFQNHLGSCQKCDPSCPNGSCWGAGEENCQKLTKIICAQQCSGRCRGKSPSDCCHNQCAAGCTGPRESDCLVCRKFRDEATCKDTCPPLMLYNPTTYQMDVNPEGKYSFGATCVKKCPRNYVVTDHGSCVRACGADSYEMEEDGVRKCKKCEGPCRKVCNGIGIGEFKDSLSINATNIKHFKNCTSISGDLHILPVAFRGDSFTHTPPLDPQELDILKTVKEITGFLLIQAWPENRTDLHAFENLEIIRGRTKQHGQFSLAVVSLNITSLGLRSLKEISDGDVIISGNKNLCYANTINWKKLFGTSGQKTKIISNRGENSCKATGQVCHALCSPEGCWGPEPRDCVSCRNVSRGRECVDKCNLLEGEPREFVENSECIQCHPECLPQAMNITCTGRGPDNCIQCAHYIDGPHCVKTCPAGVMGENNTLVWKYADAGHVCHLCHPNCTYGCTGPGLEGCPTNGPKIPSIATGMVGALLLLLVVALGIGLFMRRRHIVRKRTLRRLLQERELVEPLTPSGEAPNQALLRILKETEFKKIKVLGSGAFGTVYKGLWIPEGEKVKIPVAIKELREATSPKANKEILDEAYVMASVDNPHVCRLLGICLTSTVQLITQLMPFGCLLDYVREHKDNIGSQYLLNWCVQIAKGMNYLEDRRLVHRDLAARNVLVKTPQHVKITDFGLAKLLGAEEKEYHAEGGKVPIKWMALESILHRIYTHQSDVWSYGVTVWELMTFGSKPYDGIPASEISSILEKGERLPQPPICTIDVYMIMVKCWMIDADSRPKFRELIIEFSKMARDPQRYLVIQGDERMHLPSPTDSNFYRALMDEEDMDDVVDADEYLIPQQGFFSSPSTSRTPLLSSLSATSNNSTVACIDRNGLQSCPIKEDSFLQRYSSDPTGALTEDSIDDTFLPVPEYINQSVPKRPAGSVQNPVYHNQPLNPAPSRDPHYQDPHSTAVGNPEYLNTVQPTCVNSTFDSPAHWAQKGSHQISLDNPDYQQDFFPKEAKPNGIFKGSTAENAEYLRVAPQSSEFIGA

MDA-MB-231 [5] = experiment: Antiproliferative activity against human MDA-MB-231 cells assessed as cell growth inhibition measured after 48 hrs by WST-1 assay; format: functional, cell-based; settings: MDA-MB-231, 48 h
MDA-MB-231 [6] = experiment: Potency index, ratio of 5-Fu IC50 to compound IC50 for antiproliferative activity against human MDA-MB-231 cells assessed as cell growth inhibition measured after 48 hrs by WST-1 assay; format: functional
[7] = target: T1, Poly [ADP-ribose] polymerase 1 (Homo sapiens, UniProt P09874); experiment: Inhibition of PARP1 (unknown origin) by colorimetric assay
T1 sequence (P09874 whole entry): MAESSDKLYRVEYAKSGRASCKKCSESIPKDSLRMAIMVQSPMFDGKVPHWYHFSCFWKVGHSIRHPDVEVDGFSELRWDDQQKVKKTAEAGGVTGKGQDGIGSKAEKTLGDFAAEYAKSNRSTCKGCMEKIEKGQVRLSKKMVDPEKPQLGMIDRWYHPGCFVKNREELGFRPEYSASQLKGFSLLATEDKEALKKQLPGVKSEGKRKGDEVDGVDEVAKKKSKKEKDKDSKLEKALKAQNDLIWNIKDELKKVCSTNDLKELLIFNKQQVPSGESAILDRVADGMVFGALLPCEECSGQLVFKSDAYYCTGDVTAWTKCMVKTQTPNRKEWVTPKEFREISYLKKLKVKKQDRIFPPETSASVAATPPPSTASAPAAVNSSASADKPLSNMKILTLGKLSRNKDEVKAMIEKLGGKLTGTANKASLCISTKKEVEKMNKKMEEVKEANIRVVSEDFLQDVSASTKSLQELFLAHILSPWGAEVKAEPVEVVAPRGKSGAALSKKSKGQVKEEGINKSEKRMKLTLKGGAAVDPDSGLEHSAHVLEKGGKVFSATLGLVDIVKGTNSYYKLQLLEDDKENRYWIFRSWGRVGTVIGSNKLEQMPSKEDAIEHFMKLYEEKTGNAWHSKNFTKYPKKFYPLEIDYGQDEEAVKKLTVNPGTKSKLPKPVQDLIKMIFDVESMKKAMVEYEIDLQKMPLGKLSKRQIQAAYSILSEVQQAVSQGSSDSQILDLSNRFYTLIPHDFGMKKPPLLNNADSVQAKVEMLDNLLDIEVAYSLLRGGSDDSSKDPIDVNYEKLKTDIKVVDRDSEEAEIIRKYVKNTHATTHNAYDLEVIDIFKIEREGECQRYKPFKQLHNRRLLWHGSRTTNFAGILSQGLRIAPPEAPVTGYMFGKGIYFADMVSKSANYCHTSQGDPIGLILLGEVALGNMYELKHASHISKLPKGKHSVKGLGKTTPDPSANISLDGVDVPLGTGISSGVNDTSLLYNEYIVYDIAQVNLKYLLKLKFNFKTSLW

[8] = target: Protein deacetylase HDAC6 (Homo sapiens, UniProt Q9UBN7); experiment: Inhibition of HDAC6 (unknown origin) measured after 15 mins by fluorescence based assay
Protein deacetylase HDAC6, sequence (Q9UBN7 whole entry): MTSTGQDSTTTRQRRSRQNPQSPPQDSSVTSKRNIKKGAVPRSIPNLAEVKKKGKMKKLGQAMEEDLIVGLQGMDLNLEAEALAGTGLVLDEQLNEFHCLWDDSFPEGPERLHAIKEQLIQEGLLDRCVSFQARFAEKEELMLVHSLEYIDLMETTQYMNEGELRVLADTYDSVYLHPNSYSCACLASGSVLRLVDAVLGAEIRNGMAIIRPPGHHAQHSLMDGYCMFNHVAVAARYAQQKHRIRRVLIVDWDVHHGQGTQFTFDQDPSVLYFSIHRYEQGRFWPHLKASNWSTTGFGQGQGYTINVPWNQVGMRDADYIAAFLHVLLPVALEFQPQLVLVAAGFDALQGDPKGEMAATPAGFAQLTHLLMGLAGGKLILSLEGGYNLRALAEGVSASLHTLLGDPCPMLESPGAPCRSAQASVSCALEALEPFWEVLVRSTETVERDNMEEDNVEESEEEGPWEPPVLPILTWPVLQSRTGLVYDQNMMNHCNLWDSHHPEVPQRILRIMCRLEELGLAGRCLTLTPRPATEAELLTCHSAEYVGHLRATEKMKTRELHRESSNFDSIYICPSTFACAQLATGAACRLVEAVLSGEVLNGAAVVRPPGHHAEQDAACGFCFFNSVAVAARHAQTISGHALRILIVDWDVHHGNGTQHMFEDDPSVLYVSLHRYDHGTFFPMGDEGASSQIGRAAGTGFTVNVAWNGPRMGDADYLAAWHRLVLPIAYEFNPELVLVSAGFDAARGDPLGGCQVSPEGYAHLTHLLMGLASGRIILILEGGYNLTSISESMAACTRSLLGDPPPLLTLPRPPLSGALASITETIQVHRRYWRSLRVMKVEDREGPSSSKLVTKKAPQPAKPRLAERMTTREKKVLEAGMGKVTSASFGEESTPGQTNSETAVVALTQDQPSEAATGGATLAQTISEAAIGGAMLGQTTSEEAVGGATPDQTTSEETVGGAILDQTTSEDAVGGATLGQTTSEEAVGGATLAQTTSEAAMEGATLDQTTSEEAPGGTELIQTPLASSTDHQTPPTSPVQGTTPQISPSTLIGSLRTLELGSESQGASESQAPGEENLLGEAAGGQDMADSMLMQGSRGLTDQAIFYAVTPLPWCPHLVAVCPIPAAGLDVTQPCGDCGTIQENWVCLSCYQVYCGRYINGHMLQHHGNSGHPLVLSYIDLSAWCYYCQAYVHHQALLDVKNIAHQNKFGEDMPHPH

HCT-116 = experiment: Cytotoxicity against human HCT-116 cells assessed as cell growth inhibition; format: functional, cell-based
SR = experiment: Cytotoxicity against human SR cells assessed as cell growth inhibition measured after 48 hrs by SRB assay; format: functional
HCT-15 = experiment: Cytotoxicity against human HCT-15 cells assessed as cell growth inhibition measured after 48 hrs by SRB assay; format: functional
KM12 = experiment: Cytotoxicity against human KM12 cells assessed as cell growth inhibition measured after 48 hrs by SRB assay; format: functional
SW-620 = experiment: Cytotoxicity against human SW-620 cells assessed as cell growth inhibition measured after 48 hrs by SRB assay; format: functional
SF-295 = experiment: Cytotoxicity against human SF-295 cells assessed as cell growth inhibition measured after 48 hrs by SRB assay; format: functional
MDA-MB-435 = experiment: Cytotoxicity against human MDA-MB-435 cells assessed as cell growth inhibition measured after 48 hrs by SRB assay; format: functional
SK-MEL-5 = experiment: Cytotoxicity against human SK-MEL-5 cells assessed as cell growth inhibition measured after 48 hrs by SRB assay; format: functional
UACC-62 = experiment: Cytotoxicity against human UACC-62 cells assessed as cell growth inhibition measured after 48 hrs by SRB assay; format: functional
OVCAR-3 = experiment: Cytotoxicity against human OVCAR-3 cells assessed as cell growth inhibition measured after 48 hrs by SRB assay; format: functional
A498 = experiment: Cytotoxicity against human A498 cells assessed as cell growth inhibition measured after 48 hrs by SRB assay; format: functional
PC-3 [9] = experiment: Cytotoxicity against human PC-3 cells assessed as cell growth inhibition measured after 48 hrs by SRB assay; format: functional
MCF7 [10] = experiment: Cytotoxicity against human MCF7 cells assessed as cell growth inhibition measured after 48 hrs by SRB assay; format: functional
MDA-MB-468 = experiment: Cytotoxicity against human MDA-MB-468 cells assessed as cell growth inhibition measured after 48 hrs by SRB assay; format: functional
PC-3 [11] = experiment: Antiproliferative activity against human PC3 cells assessed as cell growth inhibition; format: functional
K562 = experiment: Antiproliferative activity against human K562 cells assessed as cell growth inhibition; format: functional
MDA-MB-436 = experiment: Antiproliferative activity against human MDA-MB-436 cells assessed as cell growth inhibition measured after 72 hrs by MTT assay; format: functional, cell-based; settings: MDA-MB-436, 72 h
[12] = target: T1, Poly [ADP-ribose] polymerase 1; experiment: Inhibition of PARP1 (unknown origin) incubated for 30 mins by ELISA assay
[13] = target: Hepatocyte growth factor receptor (Homo sapiens, UniProt P08581); experiment: Inhibition of c-Met (unknown origin) incubated for 20 to 30 mins in presence of [33P]-ATP by scintillation counter analysis
MCF7 [14] = experiment: Cytotoxicity against human MCF7 cells assessed as cell growth inhibition measured after 48 hrs by MTT assay; format: functional, cell-based; settings: MCF7, 48 h
CCRF-SB = experiment: Cytotoxicity against human CCRF-SB cells assessed as cell growth inhibition measured after 48 hrs by MTT assay; format: functional, cell-based
NALM-6 = experiment: Cytotoxicity against human NALM-6 cells assessed as cell growth inhibition measured after 48 hrs by MTT assay; format: functional, cell-based; settings: NALM-6, 48 h
[15] = Cytotoxicity against human CEM cells assessed as cell growth inhibition measured after 48 to 72 hrs by hoechst and PI staining based analysis; format: toxicity; settings: CCRF-CEM cells, time 48-72 hrs
MDA-MB-231 [16] = experiment: Cytotoxicity against human MDA-MB-231 cells assessed as cell growth inhibition measured after 48 to 72 hrs by hoechst and PI staining based analysis; format: functional; settings: time 48-72 hrs
IMR-32 = experiment: Cytotoxicity against human IMR-32 cells assessed as cell growth inhibition; format: functional, cell-based
HepG2 = experiment: Antiproliferative activity against human HepG2 cells assessed as inhibition of cell growth measured after 48 hrs by MTT assay; format: functional, cell-based; settings: HepG2, 48 h
MCF7 [17] = experiment: Antiproliferative activity against human MCF7 cells assessed as cell growth inhibition measured after 48 hrs by MTT assay; format: functional, cell-based; settings: MCF7, 48 h
SH-SY5Y = experiment: Anticancer activity against human SH-SY5Y cells assessed as cell growth inhibition measured upto 72 hrs by MTS assay; format: functional, cell-based
Hep 3B2 = experiment: Anticancer activity against human Hep3B cells assessed as cell growth inhibition measured upto 72 hrs by MTS assay; format: functional, cell-based

IC50 (MCF7 [1]): 3.25 µg/mL
IC50 (A549): 5 µg/mL (≈ 6.52 µM)
SMILES: CC(C)[Si](C#Cc1cc(-n2cc(Cn3nc(-c4ccccc4)cc(-c4ccccc4)c3=O)nn2)cc(C#C[Si](C(C)C)(C(C)C)C(C)C)n1)(C(C)C)C(C)C

IC50 [4]: 0.00045 µM
SMILES: CN(C)c1ccc(/C=N/NC(=O)Cn2nc(Cc3ccc(Cl)cc3)c3ccccc3c2=O)cc1

IC50 (MDA-MB-231 [5]): 12 µM
SMILES: O=C1Nc2ccc(Cl)cc2/C1=N/Nc1nnc(-c2ccc(Cl)cc2)c2ccccc12
Ratio IC50 (MDA-MB-231 [6]): 2.4

IC50 [7]: 0.007 µM
IC50 [8]: 0.057 µM
SMILES: O=C(/C=C/c1ccc(CCCCCCc2n[nH]c(=O)c3cc(F)ccc23)cc1)NO

GI50 (PC-3 [11]): 5.3 µM
GI50 (K562): 9.4 µM
SMILES: CC1(C)CC(=O)C2=C(C1)n1c(=O)c3ccccc3c(=O)n1C2

IC50 (MDA-MB-436): 11.6 µM
SMILES: O=C(/C=C/c1cccc([N+](=O)[O-])c1)N1CCN(C(=O)c2cc(Cc3n[nH]c(=O)c4ccccc34)ccc2F)CC1

IC50 [12]: 0.0455 µM
SMILES: O=C(Nc1nc(-c2ccccc2)cs1)c1ccc(Cc2n[nH]c(=O)c3cccnc23)cc1

IC50 [13]: 107 µM
SMILES: O=C(O)c1ccccc1Nc1ccc2nnc(-c3ccncc3)n2n1

IC50 (SH-SY5Y): 23.2 µM
SMILES: Cc1cccc(/C=N/NC(=O)Cn2nc(N3CCN(c4ccc(Cl)cc4)CC3)ccc2=O)c1
IC50 (Hep 3B2): 24.3 µM

Continued, molecule first:

SMILES: COc1ccc(-c2nc(N3N=C(c4ccc(F)cc4)CCC3=O)n(C)c(=O)c2C#N)cc1
IC50 (MCF7 [1]): 3.43 µM
IC50 (MDA-MB-231 [2]): 2.56 µM
IC50 (HaCaT): > 50 µM

SMILES: CC(C)Nc1ccc2nnc(-c3cc(-c4cnn(C5CCN(CCO)CC5)c4)cnc3N)n2n1
IC50 [3]: 0.033 µM
IC50 (TMD8): 0.8 µM

SMILES: O=C(Nc1ccc(Oc2nnc(Cl)c3ccccc23)cc1)Nc1ccc(Cl)c(C(F)(F)F)c1
inhibition at 10 µM (HUVEC): 71.6%

SMILES: O=C(NC(Cc1c[nH]c2ccccc12)C1C(=O)N=C2C=CC=NN21)c1ccccc1 (centres undefined)
IC50 (A-375): 0.014 µM
IC50 (COLO 205): 0.021 µM

SMILES: N=C(N)NS(=O)(=O)c1ccc(Nc2ccc3nc4ccccc4c(=O)n3n2)cc1
IC50 (HCT-116): 11.9 µM

SMILES: CCOC(=O)c1cc(C(=O)c2cc(OC)c(OC)c(OC)c2)n2nc(C)ccc12
GI50 (SR): 0.0481 µM
GI50 (HCT-15): < 0.1 µM
GI50 (KM12): < 0.1 µM
GI50 (SW-620): < 0.1 µM
GI50 (SF-295): < 0.1 µM
GI50 (MDA-MB-435): 0.0256 µM
GI50 (SK-MEL-5): < 0.1 µM
GI50 (UACC-62): < 0.1 µM
GI50 (OVCAR-3): < 0.1 µM
GI50 (A498): < 0.1 µM
GI50 (PC-3 [9]): < 0.1 µM
GI50 (MCF7 [10]): 0.0481 µM
GI50 (MDA-MB-468): < 0.1 µM

SMILES: Clc1ccc2nnc(-c3c[nH]c4ccccc34)n2n1
IC50 (MCF7 [14]): 3.55 µM
IC50 (CCRF-SB): 1.64 µM
IC50 (NALM-6): 1.14 µM

SMILES: O=c1c(Cl)c(Cl)cnn1-c1ccc(Cl)c(C(F)(F)F)c1
CC50 [15]: 0.33 µM
CC50 (MDA-MB-231 [16]): 2.63 µM

SMILES: Cc1n[nH]c(=O)c2c1c1cc(F)ccc1n2Cc1cn(C2CCCCC2)nn1
IC50 (IMR-32): 0.04 µM

SMILES: O=c1[nH]nc(-c2nnc(S)o2)c2ccccc12
IC50 (HepG2): 4.5 µM
IC50 (MCF7 [17]): 4.9 µM
